Data published in paper PMC10110893, “[…]-derived synthetic cannabinoids inhibit T-type calcium channels with divergent effects on seizures in rodent models of epilepsy” (Frontiers in Physiology, 2023).

Experiments:
human Cav3.1 = target: T1, human Cav3.1 (Homo sapiens, UniProt O43497); test: Whole-cell patch-clamp electrophysiology, Cav3.1; format: cell-based
T1 construct: expressed in transfected cells; host or cells: HEK293 FlpIn T-Rex cells (Invitrogen)
Description: All whole-cell voltage-clamp recordings from HEK293 FlpIn T-Rex cells stably transfected with human Cav3.1 were performed at room temperature. At least 24 h prior to experiments, cells were detached from flasks using trypsin/EDTA and plated into 10 cm sterile tissue culture dishes containing 10 mL of supplemented DMEM and 10–15 glass coverslips (12 mm diameter, ProScitech, QLD, Australia). Culture dishes were then kept overnight in same conditions as flasks to allow cells to adhere to coverslips. They were then transferred to a 30°C/5% CO2 incubator to inhibit cell proliferation until ready to be used for electrophysiology experiments. At this stage, channel expression was induced with tetracycline (2 μg/mL, Sigma-Aldrich) 8–24 h prior to recording cells.
External recording solutions contained (in mM): 114 CsCl, 5 BaCl2, 1 MgCl2, 10 HEPES, 10 glucose, adjusted to pH 7.4 with CsOH. The internal patch pipette solution contained (in mM): 126.5 CsMeSO4, 2 MgCl2, 11 EGTA, 10 HEPES adjusted to pH 7.3 with CsOH. […] Liquid junction potentials for the above solutions were calculated before experiments using pClamp 10 software and corrected during experiments. […] Currents were elicited from a holding potential of −100 mV and were measured by conventional whole-cell patch clamp techniques using an Axopatch 200B amplifier in combination with Clampex 9.2 software (Molecular Devices, Sunnyvale, CA). […]

[1] = Brain concentration after sub-chronic administration in chow; format: in vivo, mouse; settings: 5,000 mg/kg chow ad libitum P18–23, male and female mice, n = 10
Description: Plasma samples (50 μL) were spiked with an internal standard (diazepam) and vortexed with 1 M NaOH (50 μL) and methyl tert-butyl ether (1 mL) to achieve protein precipitation. The organic layer was isolated by centrifugation (4,000 g for 3 min) before being frozen for 60 min at −80°C, evaporated to dryness using N2, and reconstituted in 30% acetonitrile and 0.1% formic acid in water for analysis. Brain hemispheres were homogenised in a 10x w/v 1:1 methanol-water solution using a Biospec Tissue-Tearor (Bartlesville, United States) and centrifuged at 20,000 g for 30 min at 4°C. Supernatant (100 μL) was collected and prepared following the same method as plasma.
SB2193 and SB2193F concentrations in brain and plasma samples were assessed by high performance liquid chromatography-tandem mass spectrometry (HPLC-MS/MS) using a Shimadzu Nexera liquid chromatograph coupled with a Shimadzu 8,030 triple quadrupole mass spectrometer (Kyoto, Japan). […]
Quantification was achieved by comparing experimental samples to plasma and brain standards prepared with known concentrations of SB2193 or SB2193F. Samples were quantified against a 7-point standard curve (R ^2 > 0.98 for both analytes). […]

T-type channels = tested on: T-type channels; design: method as in Kevin et al., 2022; settings: single 10 μM concentration, FLIPR calcium flux and whole-cell patch clamp, ref Kevin et al., 2022; cited from earlier work

T1 sequence (O43497 whole entry): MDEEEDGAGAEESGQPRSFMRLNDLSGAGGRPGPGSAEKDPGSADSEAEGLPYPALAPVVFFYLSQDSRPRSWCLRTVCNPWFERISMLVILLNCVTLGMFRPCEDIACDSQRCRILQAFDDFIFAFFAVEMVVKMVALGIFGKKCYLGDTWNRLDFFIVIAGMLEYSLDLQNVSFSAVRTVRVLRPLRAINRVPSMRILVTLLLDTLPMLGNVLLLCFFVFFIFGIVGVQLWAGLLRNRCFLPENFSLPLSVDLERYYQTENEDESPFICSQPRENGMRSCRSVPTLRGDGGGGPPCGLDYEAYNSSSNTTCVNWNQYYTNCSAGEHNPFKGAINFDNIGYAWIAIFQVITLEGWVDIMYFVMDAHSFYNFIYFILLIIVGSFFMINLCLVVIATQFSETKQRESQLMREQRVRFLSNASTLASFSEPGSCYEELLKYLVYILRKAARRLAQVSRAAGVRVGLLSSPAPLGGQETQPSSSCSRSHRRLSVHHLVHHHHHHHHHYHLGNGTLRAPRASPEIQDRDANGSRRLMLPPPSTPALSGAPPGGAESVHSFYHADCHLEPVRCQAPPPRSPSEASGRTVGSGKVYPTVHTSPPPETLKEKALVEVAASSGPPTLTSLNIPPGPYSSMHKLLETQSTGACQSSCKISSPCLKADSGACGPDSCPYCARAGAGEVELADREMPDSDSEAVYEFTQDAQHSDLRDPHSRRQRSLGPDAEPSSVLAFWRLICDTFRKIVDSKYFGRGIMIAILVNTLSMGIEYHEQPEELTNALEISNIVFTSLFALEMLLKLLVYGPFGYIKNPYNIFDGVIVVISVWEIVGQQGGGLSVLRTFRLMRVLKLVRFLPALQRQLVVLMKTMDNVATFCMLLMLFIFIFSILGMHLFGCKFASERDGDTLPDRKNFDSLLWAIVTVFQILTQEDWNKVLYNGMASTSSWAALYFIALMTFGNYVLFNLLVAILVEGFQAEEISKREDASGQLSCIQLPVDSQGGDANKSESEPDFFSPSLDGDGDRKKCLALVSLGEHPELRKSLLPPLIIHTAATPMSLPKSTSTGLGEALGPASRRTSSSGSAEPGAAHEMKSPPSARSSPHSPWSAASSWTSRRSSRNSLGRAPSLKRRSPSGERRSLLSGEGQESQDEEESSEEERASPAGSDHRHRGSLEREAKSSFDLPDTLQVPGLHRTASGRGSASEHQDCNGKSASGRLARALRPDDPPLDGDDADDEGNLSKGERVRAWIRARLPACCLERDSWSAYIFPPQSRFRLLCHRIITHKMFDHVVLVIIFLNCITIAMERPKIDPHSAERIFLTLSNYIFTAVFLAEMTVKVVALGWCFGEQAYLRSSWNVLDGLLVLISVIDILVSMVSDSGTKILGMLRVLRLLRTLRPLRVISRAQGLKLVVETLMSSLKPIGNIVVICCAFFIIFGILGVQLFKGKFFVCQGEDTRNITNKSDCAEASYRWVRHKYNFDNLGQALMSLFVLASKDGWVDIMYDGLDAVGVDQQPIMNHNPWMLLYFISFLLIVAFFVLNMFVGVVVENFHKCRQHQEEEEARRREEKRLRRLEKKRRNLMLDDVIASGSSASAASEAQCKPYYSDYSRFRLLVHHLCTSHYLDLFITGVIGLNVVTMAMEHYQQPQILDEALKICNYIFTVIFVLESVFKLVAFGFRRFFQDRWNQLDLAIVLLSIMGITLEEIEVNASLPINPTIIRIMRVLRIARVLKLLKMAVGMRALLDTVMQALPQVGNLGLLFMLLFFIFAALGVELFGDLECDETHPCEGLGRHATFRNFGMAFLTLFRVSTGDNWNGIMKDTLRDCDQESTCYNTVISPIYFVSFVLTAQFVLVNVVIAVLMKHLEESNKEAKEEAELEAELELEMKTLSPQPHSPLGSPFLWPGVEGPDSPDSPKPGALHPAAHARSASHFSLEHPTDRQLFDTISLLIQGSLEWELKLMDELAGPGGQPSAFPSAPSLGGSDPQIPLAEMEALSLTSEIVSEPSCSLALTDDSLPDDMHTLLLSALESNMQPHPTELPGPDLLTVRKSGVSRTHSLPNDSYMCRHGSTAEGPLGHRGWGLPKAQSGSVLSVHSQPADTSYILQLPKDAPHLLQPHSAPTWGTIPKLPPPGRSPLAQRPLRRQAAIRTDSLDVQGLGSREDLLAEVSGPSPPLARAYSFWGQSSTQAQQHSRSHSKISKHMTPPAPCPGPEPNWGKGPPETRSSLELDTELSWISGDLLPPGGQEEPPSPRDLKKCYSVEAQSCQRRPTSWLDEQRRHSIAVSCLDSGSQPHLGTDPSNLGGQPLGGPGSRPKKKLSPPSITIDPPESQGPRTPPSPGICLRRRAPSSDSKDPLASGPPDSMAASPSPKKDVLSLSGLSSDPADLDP

With `CCCCCn1cc(C(=O)N2CCN(C(=O)OC(C)(C)C)CC2)c2ccccc21` [SB2193] the “potency in patch clamp less than that determined by the FLIPR assay” value (human Cav3.1; Cav3.1, patch clamp vs FLIPR) was “approximately 4 fold”, the IC50 (human Cav3.1; whole-cell patch clamp, n = 7–8, read-out: Cav3.1 pIC50 (converted)) was 3.55 µM and the brain concentration [1] was 1700 ± 600 nM. For the same molecule, the “inhibition of T-type channels” value (T-type channels) was “strongly inhibit”.
